Strand notation (5' to 3'): a small letter for the sugar, then the base; units joined by * are phosphorothioate-linked, units joined directly phosphodiester-linked; [ ] holds rarer units or linkages, { } end groups; capitals alone tell only the bases. [PAM-N] = nucleoside carrying a 2'-(butylacetamido)-palmitamide group (palmitic acid C16 conjugate) (N: the base); e = 2'-O-(2-methoxyethyl) (MOE); l = locked nucleic acid (LNA); [5mC] = 5-methylcytosine; d = 2'-deoxy (DNA)
Experiments:
ApoB mRNA [1] = experiment: ApoB mRNA in liver and ED50, single dose of BNA short antisense compounds (Table 92); format: in vivo, mouse; settings: ApoB mRNA in liver, single i.p. injection
Description: (§1) The short antisense compounds tested were ISIS 387462 and ISIS 398296. Each dose group consisted of four animals. A 5-10-5 MOE gapmer was used for a control treatment. Mice were sacrificed approximately 48 hours following the final dose. Liver tissue was collected for RNA isolation, and blood was collected for serum chemistry analyses. ApoB mRNA levels were measured by real-time PCR as described herein. ApoB mRNA levels were normalized to RNA levels as determined by RIBOGREEN, and are presented in Table 92 as percent inhibition relative to ApoB mRNA levels in saline-treated control animals.
At the 8 umol/kg dose, ApoB inhibition by the short antisense compounds was greater than observed with a 5-10-5 MOE gapmer at an equivalent dose. […] Triglycerides were reduced at the highest dose.

[2] = Triglyceride, total cholesterol, HDL, LDL and free fatty acid levels, ApoB study (Table 28); format: in vivo, mouse; parameters: Free Fatty Acid (FFA): unit not given here; settings: Balb/c mice, i.p. twice per week for three weeks
Description: (§2) Antisense compound doses included 2.4, 1.2, 0.6, 0.3 and 0.15 μmol/kg. For antisense compounds 14 nucleotides in length, these doses equate to approximately 12, 6, 3, 1.5 or 0.75 mg/kg, respectively. Shown in Table 25 are the sequences and motifs of the antisense compounds used in this study. […] Bolded residues indicate 2′-O-methoxyethyl moieties and italicized residues indicate methyleneoxy (4′-CH2—O-2′) BNAs. The internucleoside linkages of each compound are phosphorothioate throughout. All cytosine residues of ISIS 147764 and ISIS 372938 are replaced by 5-methyl cytosines. For ISIS 387462, only the cytosine residue in the wing of the compound is replaced by 5-methyl cytosine. ApoB antisense compounds are targeted to publicly available ApoB-100 sequences, including Genbank Accession No. XM—137955.5 (SEQ ID NO: 2).
(§3) Forty-eight hours following the final injection, mice were sacrificed to evaluate transaminases (Table 26); liver and kidney weight (Table 27); triglyceride, LDL, HDL and free fatty acid levels (Table 28); target mRNA level in liver (Table 29); target protein level in plasma; and oligonucleotide tissue concentration (Table 30). These endpoints were determined using methods described herein and well known to those of ordinary skill in the art.

[3] = Liver and kidney weight, body weight, food consumption, glucose, ApoB study (Table 27); format: in vivo, mouse; settings: Balb/c mice, i.p. twice per week for three weeks
Description: as §2, §3
Glucose levels also were similar among all treatment groups.

ApoB mRNA [4] = experiment: ApoB mRNA level in liver, Balb/c mice dosed i.p. twice per week for three weeks (Table 29); EC50 in liver; format: in vivo, mouse; settings: for % ApoB mRNA Level (relative to saline control): liver, Balb/c mice
Description: Prior to quantitative PCR analysis, primer-probe sets specific to the target gene being measured were evaluated for their ability to be “multiplexed” with a GAPDH amplification reaction. After isolation the RNA is subjected to sequential reverse transcriptase (RT) reaction and real-time PCR, both of which are performed in the same well. RT and PCR reagents were obtained from Invitrogen Life Technologies (Carlsbad, Calif.). […] The RT reaction was carried out by incubation for 30 minutes at 48° C. Following a 10 minute incubation at 95° C. to activate the PLATIN 9M® Taq, 40 cycles of a two-step PCR protocol were carried out: 95° C. for 15 seconds (denaturation) followed by 60° C. for 1.5 minutes (annealing/extension).
170 μL of RiboGreen® working reagent (RiboGreen® reagent diluted 1:350 in 10 mM Tris-HCl, 1 mM EDTA, pH 7.5) was pipetted into a 96-well plate containing 30 μL purified cellular RNA. The plate was read in a CytoFluor® 4000 (PE Applied Biosystems) with excitation at 485 nm and emission at 530 nm.
as §2, §3
The EC50 for ISIS 387462 in the liver was determined by comparing oligonucleotide concentration in the liver to inhibition of ApoB mRNA.

[5] = Full-length and total antisense compound tissue concentration in liver and kidney, ApoB study (Table 30); format: in vivo, mouse; settings: Balb/c mice, i.p. twice per week for three weeks, 2.4 μmol/kg
Description: as §2, with “ApoB antisense compounds are targeted to publicly available ApoB-100 sequences, including Genbank Accession No. XM—137955.5 (SEQ ID NO: 2).” left out
as §3
To determine whether the observed increase in efficiency with the methyleneoxy (4′-CH2—O-2′) BNA gapmer is due to an increase in oligonucleotide accumulation, full-length and total oligonucleotide concentration in the liver and kidney were determined.

[6] = ALT and AST levels and adverse side effects, ApoB study (Table 26); format: in vivo, mouse; settings: Balb/c mice, i.p. twice per week for three weeks, 48 h after final injection
Description: as §2, §3

PTP1B mRNA [7] = experiment: Antisense inhibition of human PTP1B in HepG2 cells, 25 nM (Table 85); format: cell-based
Description: Short antisense compounds targeted to a PTP1B nucleic acid were tested for their effects on PTP1B mRNA in vitro. Cultured HepG2 cells at a density of 10000 cells per well in a 96-well plate were treated with 25 nM of antisense oligonucleotide. After the treatment period, RNA was isolated from the cells and PTP1B mRNA levels were measured by quantitative real-time PCR, as described herein. PTP1B mRNA levels were adjusted according to total RNA content as measured by RIBOGREEN®. Results are presented as percent inhibition (% Ihib) of PTP1B, relative to untreated control cells.

PTP1B mRNA [8] = experiment: Antisense inhibition of human PTP1B in HuVEC cells, 3 nM (Table 84); format: cell-based
Description: Short antisense compounds targeted to a PTP1B nucleic acid were tested for their effects on PTP1B mRNA in vitro. Cultured HuVEC cells at a density of 5000 cells per well in a 96-well plate were treated as described herein with 3 nM of short antisense compound. After the treatment period, RNA was isolated from the cells and PTP1B mRNA levels were measured by quantitative real-time PCR, as described herein. PTP1B mRNA levels were adjusted according to total RNA content as measured by RIBOGREEN®. Results are presented as percent inhibition of PTP1B (% Inhib), relative to untreated control cells.

[9] = Triglycerides, total cholesterol, HDL-C, LDL-C and adverse effects (Example 30); format: in vivo, mouse
Description: as §1, with “0.4,” for “The short antisense compounds tested were ISIS 387462”, “0.16 umol/kg.” for “ISIS 398296.”, “95” for “92”
At the 2.5 umol/kg dose, ApoB inhibition by the short antisense compounds was greater than observed with a 5-10-5 MOE gapmer at an equivalent dose. […] Triglycerides were reduced at the 2.5 and […] doses of ISIS 387462 and ISIS 391872.

ISIS 398296: GGTACATGGAAGTC 2-10-2 (6′S)-6′-methyl-Methyleneoxy BNA, Unmodified Cytosines, ApoB (2-10-2 6'-(S)-methyl BNA gapmer, chemistry not fully specified)
ED50 (ApoB mRNA [1]): 8.7 mg/kg

372938 (antisense eG*eG*dT*dA*d[5mC]*dA*dT*dG*dG*dA*dA*dG*eT*e[5mC]) [compound 372938]
LDL ([2]; 0.3 μmol/kg): 11.0 mg/dL
Total Cholesterol (CHOL) ([2]; 0.6 μmol/kg): 110 mg/dL
Free Fatty Acid (FFA) ([2]; 1.2 μmol/kg): 1.70
LDL ([2]; 1.2 μmol/kg): 9.5 mg/dL
HDL ([2]; 2.4 μmol/kg): 79.0 mg/dL
Kidney Weight ([3]; 0.15 μmol/kg): 98 % of saline control
Liver Weight ([3]; 0.15 μmol/kg): 96 % of saline control
Liver Weight ([3]; 0.3 μmol/kg): 91 % of saline control
Liver Weight ([3]; 0.6 μmol/kg): 96 % of saline control
Liver Weight ([3]; 1.2 μmol/kg): 90 % of saline control
Kidney Weight ([3]; 2.4 μmol/kg): 100 % of saline control
Liver Weight ([3]; 2.4 μmol/kg): 100 % of saline control
ApoB mRNA level (ApoB mRNA [4]; Table 30, Balb/c mice, 2.4 μmol/kg): 77 % of saline control
% ApoB mRNA Level (relative to saline control) (ApoB mRNA [4]; 1.2 μmol/kg): 90.0%
% ApoB mRNA Level (relative to saline control) (ApoB mRNA [4]; 2.4 μmol/kg): 77.0%
Kidney Full-Length Antisense Compound Tissue Concentration [5]: 32.0 µM
Kidney Total Antisense Compound Tissue Concentration [5]: 34.0 µM
AST ([6]; 0.3 μmol/kg): 60.0 IU/L
ALT ([6]; 0.6 μmol/kg): 28.0 IU/L
ALT ([6]; 2.4 μmol/kg): 26.0 IU/L
AST ([6]; 2.4 μmol/kg): 49.0 IU/L

404137 (antisense e[5mC]*eA*dG*dT*dG*dT*dG*d[5mC]*dA*d[5mC]*dA*d[5mC]*eA*eG) [compound 404137]
% Inhib (PTP1B mRNA [7]): 71%
% Inhib (PTP1B mRNA [8]): 76%

404139 (eG*eT*dG*d[5mC]*dA*d[5mC]*dA*d[5mC]*dA*dG*d[5mC]*dT*eG*eA) [compound 404139]
% Inhib (PTP1B mRNA [7]): 45%
% Inhib (PTP1B mRNA [8]): 80%

ISIS 391872: GGTACATGGAAGTC 1-1-10-2 2′-(butylacetomido)-palmitamide Methyleneoxy BNA/Methyleneoxy BNA, Unmodified cytosines in gap, ApoB ([PAM-G]*lG*dT*dA*dC*dA*dT*dG*dG*dA*dA*dG*lT*l[5mC])
Triglycerides ([9]; at the 2.5 and 1.0 mg/kg doses): reduced
total cholesterol, HDL-C and LDL-C ([9]; in a dose-dependent manner): markedly reduced

Source: patent US8372967B2, “Compounds and methods for modulating expression of GCCR” (Isis Pharmaceuticals, Inc., priority 2006, dated 2013)
